# Target: T1, human RIPK1 (1-375) (Homo sapiens, UniProt Q13546)
# T1 construct: human RIPK1 (1-375) gene; GST; made in house; host or cells: Sf-9 insect cells
# T1 sequence (Q13546 1-375): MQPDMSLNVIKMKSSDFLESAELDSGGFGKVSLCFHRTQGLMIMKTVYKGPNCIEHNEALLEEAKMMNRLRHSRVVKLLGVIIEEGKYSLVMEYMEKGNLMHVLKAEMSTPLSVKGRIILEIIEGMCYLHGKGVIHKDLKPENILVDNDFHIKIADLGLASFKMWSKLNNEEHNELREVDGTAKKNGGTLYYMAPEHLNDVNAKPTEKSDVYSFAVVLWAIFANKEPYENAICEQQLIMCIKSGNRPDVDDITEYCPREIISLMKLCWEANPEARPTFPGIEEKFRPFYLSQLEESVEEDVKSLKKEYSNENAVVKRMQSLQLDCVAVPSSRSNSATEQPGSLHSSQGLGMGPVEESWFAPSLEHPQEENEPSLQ
# Experiment: Human RIPK1 enzyme inhibitory effect (ADP-Glo Kinase Assay)
# Format: biochemical
# Conditions: 10 μM test compound; well without enzyme = 100% inhibition; 10 µM
# How it was run: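 Human RIPK1 (1-375), GST-purified from Sf-9 cells, preincubated 20 min at room temperature with compound in 25 mM HEPES pH 7.5, 10 mM MgCl2, 0.01% Tween-20, 2 mM DTT. Reaction started with 0.6 mM ATP solution (stock), run 120 min at room temperature. ADP measured by ADP-Glo luminescence.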
row,Structure (SMILES),human RIPK1 enzyme inhibitory effect at 10 μM (% inhibition) [%]
1,"CN1C(=O)C(N2CCc3c(nn(Cc4ccccc4)c3Cl)C2=O)CCc2cnccc21 (stereo not drawn) [Example 99, 3-(2-benzyl-3-chloro-7-oxo-2,4,5,7-tetrahydro-6H-pyrazolo[3,4-c]pyridin-6-yl)-1-methyl-1,3,4,5-tetrahydro-2H-pyrido[4,3-b]azepin-2-one]",98
2,"CN1C(=O)C(N2CCc3c(nn(Cc4ccccc4)c3Cl)C2=O)CCc2cnccc21 (stereo not drawn) [Example 100, 3-(2-benzyl-3-chloro-7-oxo-2,4,5,7-tetrahydro-6H-pyrazolo[3,4-c]pyridin-6-yl)-1-methyl-1,3,4,5-tetrahydro-2H-pyrido[4,3-b]azepin-2-one]",91
3,"CN1C(=O)C(N2CCc3c(nn(Cc4ccccc4)c3Cl)C2=O)CCc2ccncc21 (stereo not drawn) [Example 102, 3-(2-benzyl-3-chloro-7-oxo-2,4,5,7-tetrahydro-6H-pyrazolo[3,4-c]pyridin-6-yl)-1-methyl-1,3,4,5-tetrahydro-2H-pyrido[3,4-b]azepin-2-one]",88
4,"CN1C(=O)C(N2CCc3c(nn(Cc4ccccc4)c3Cl)C2=O)CCc2cn(C)nc21 (stereo not drawn) [Example 114, 6-(2-benzyl-3-chloro-7-oxo-2,4,5,7-tetrahydro-6H-pyrazolo[3,4-c]pyridin-6-yl)-2,8-dimethyl-2,5,6,8-tetrahydropyrazolo[3,4-b]azepin-7(4H)-one]",101
5,"CN1C(=O)C(N2CCc3c(nn(Cc4ccccc4F)c3Cl)C2=O)CCc2nn(C)cc21 (stereo not drawn) [Example 120, 6-(3-chloro-2-(2-fluorobenzyl)-7-oxo-2,4,5,7-tetrahydro-6H-pyrazolo[3,4-c]pyridin-6-yl)-2,4-dimethyl-2,6,7,8-tetrahydropyrazolo[4,3-b]azepin-5(4H)-one]",95

# Now from value to compound:
row,human RIPK1 enzyme inhibitory effect at 10 μM (% inhibition) [%],Structure (SMILES)
1,95,"CN1C(=O)C(N2CCc3c(nn(Cc4ccccc4F)c3Cl)C2=O)CCc2ccncc21 (stereo not drawn) [Example 104, 3-(3-chloro-2-(2-fluorobenzyl)-7-oxo-2,4,5,7-tetrahydro-6H-pyrazolo[3,4-c]pyridin-6-yl)-1-methyl-1,3,4,5-tetrahydro-2H-pyrido[3,4-b]azepin-2-one]"
2,95,"CN1C(=O)C(N2CCc3c(nn(Cc4ccccc4F)c3Cl)C2=O)CCc2cnccc21 (stereo not drawn) [Example 106, 3-(3-chloro-2-(2-fluorobenzyl)-7-oxo-2,4,5,7-tetrahydro-6H-pyrazolo[3,4-c]pyridin-6-yl)-1-methyl-1,3,4,5-tetrahydro-2H-pyrido[4,3-b]azepin-2-one]"
3,99,"CN1C(=O)C(N2CCc3c(nn(Cc4ccccc4)c3Cl)C2=O)CCc2cn(C)nc21 (stereo not drawn) [Example 111, 6-(2-benzyl-3-chloro-7-oxo-2,4,5,7-tetrahydro-6H-pyrazolo[3,4-c]pyridin-6-yl)-2,8-dimethyl-2,5,6,8-tetrahydropyrazolo[3,4-b]azepin-7(4H)-one]"
4,61,"CN1C(=O)C(N2CCc3c(nn(Cc4ccccc4)c3Cl)C2=O)CCc2cn(C)nc21 (stereo not drawn) [Example 113, 6-(2-benzyl-3-chloro-7-oxo-2,4,5,7-tetrahydro-6H-pyrazolo[3,4-c]pyridin-6-yl)-2,8-dimethyl-2,5,6,8-tetrahydropyrazolo[3,4-b]azepin-7(4H)-one]"
5,86,"CN1C(=O)C(N2CCc3c(nn(Cc4ccccc4F)c3Cl)C2=O)CCc2nn(C)cc21 (stereo not drawn) [Example 121, 6-(3-chloro-2-(2-fluorobenzyl)-7-oxo-2,4,5,7-tetrahydro-6H-pyrazolo[3,4-c]pyridin-6-yl)-2,4-dimethyl-2,6,7,8-tetrahydropyrazolo[4,3-b]azepin-5(4H)-one]"

# Same assay, conditions: read-out: human RIPK1 enzyme inhibitory effect at 10 μM (% inhibition), 10 μM test compound; well without enzyme = 100% inhibition
row,Structure (SMILES),inhibition at 10 µM [%]
1,"CN1C(=O)C(N2CCc3c(nn(Cc4ccccc4F)c3Cl)C2=O)CCc2ccncc21 (stereo not drawn) [Example 103, 3-(3-chloro-2-(2-fluorobenzyl)-7-oxo-2,4,5,7-tetrahydro-6H-pyrazolo[3,4-c]pyridin-6-yl)-1-methyl-1,3,4,5-tetrahydro-2H-pyrido[3,4-b]azepin-2-one]",99
2,"CN1C(=O)[C@@H](N2CCc3c(nn(Cc4ccccc4)c3Cl)C2=O)COc2cc(-c3cnn(C)c3)ccc21 [Example 107, (3S)-3-(2-benzyl-3-chloro-7-oxo-2,4,5,7-tetrahydro-6H-pyrazolo[3,4-c]pyridin-6-yl)-5-methyl-8-(1-methyl-1H-pyrazol-4-yl)-2,3-dihydro-1,5-benzoxazepin-4(5H)-one]",100
3,"Cc1c2c(nn1Cc1ccccc1F)C(=O)N([C@H]1COc3cc(Br)ccc3N(C)C1=O)CC2 [Example 109, (3S)-8-bromo-3-(2-(2-fluorobenzyl)-3-methyl-7-oxo-2,4,5,7-tetrahydro-6H-pyrazolo[3,4-c]pyridin-6-yl)-5-methyl-2,3-dihydro-1,5-benzoxazepin-4(5H)-one]",100
4,"Cc1c2c(nn1Cc1ccccc1F)C(=O)N([C@H]1COc3cc(C#N)ccc3N(C)C1=O)CC2 [Example 112, (3S)-3-(2-(2-fluorobenzyl)-3-methyl-7-oxo-2,4,5,7-tetrahydro-6H-pyrazolo[3,4-c]pyridin-6-yl)-5-methyl-4-oxo-2,3,4,5-tetrahydro-1,5-benzoxazepine-8-carbonitrile]",100
5,"CN1C(=O)[C@@H](N2CCc3c(nn(Cc4ccccc4)c3Cl)C2=O)COc2cc(C(=O)NC3COC3)ccc21 [Example 118, (3S)-3-(2-benzyl-3-chloro-7-oxo-2,4,5,7-tetrahydro-6H-pyrazolo[3,4-c]pyridin-6-yl)-5-methyl-N-(oxetan-3-yl)-4-oxo-2,3,4,5-tetrahydro-1,5-benzoxazepine-8-carboxamide]",98
6,"CNC(=O)c1cc2c(cc1F)N(C)C(=O)[C@@H](N1CCc3c(nn(Cc4ccccc4)c3Cl)C1=O)CO2 [Example 122, (3S)-3-(2-benzyl-3-chloro-7-oxo-2,4,5,7-tetrahydro-6H-pyrazolo[3,4-c]pyridin-6-yl)-7-fluoro-N,5-dimethyl-4-oxo-2,3,4,5-tetrahydro-1,5-benzoxazepine-8-carboxamide]",101

# The remaining lines, values ahead:
row,inhibition at 10 µM [%],Structure (SMILES)
1,97,"CN1C(=O)C(N2CCc3c(nn(Cc4ccccc4)c3Cl)C2=O)CCc2ccncc21 (stereo not drawn) [Example 101, 3-(2-benzyl-3-chloro-7-oxo-2,4,5,7-tetrahydro-6H-pyrazolo[3,4-c]pyridin-6-yl)-1-methyl-1,3,4,5-tetrahydro-2H-pyrido[3,4-b]azepin-2-one]"
2,99,"CN1C(=O)C(N2CCc3c(nn(Cc4ccccc4F)c3Cl)C2=O)CCc2cnccc21 (stereo not drawn) [Example 105, 3-(3-chloro-2-(2-fluorobenzyl)-7-oxo-2,4,5,7-tetrahydro-6H-pyrazolo[3,4-c]pyridin-6-yl)-1-methyl-1,3,4,5-tetrahydro-2H-pyrido[4,3-b]azepin-2-one]"
3,100,"CN1C(=O)[C@@H](N2CCc3c(nn(Cc4ccccc4)c3Cl)C2=O)COc2cc(-c3ccn(C)n3)ccc21 [Example 108, (3S)-3-(2-benzyl-3-chloro-7-oxo-2,4,5,7-tetrahydro-6H-pyrazolo[3,4-c]pyridin-6-yl)-5-methyl-8-(1-methyl-1H-pyrazol-3-yl)-2,3-dihydro-1,5-benzoxazepin-4(5H)-one]"
4,100,"CN1C(=O)[C@@H](N2CCc3cn(Cc4c(F)cccc4F)nc3C2=O)COc2cc(Br)ccc21 [Example 110, (3S)-8-bromo-3-(2-(2,6-difluorobenzyl)-7-oxo-2,4,5,7-tetrahydro-6H-pyrazolo[3,4-c]pyridin-6-yl)-5-methyl-2,3-dihydro-1,5-benzoxazepin-4(5H)-one]"
5,101,"CNC(=O)c1ccc2c(c1)OC[C@H](N1CCc3c(nn(Cc4ccccc4F)c3C)C1=O)C(=O)N2C [Example 115, (3S)-3-(2-(2-fluorobenzyl)-3-methyl-7-oxo-2,4,5,7-tetrahydro-6H-pyrazolo[3,4-c]pyridin-6-yl)-N,5-dimethyl-4-oxo-2,3,4,5-tetrahydro-1,5-benzoxazepine-8-carboxamide]"
6,101,"CNC(=O)c1ccc2c(c1)OC[C@H](N1CCc3cn(Cc4c(F)cccc4F)nc3C1=O)C(=O)N2C [Example 116, (3S)-3-(2-(2,6-difluorobenzyl)-7-oxo-2,4,5,7-tetrahydro-6H-pyrazolo[3,4-c]pyridin-6-yl)-N,5-dimethyl-4-oxo-2,3,4,5-tetrahydro-1,5-benzoxazepine-8-carboxamide]"
7,101,"CNC(=O)c1ccc2c(c1)OC[C@H](N1CCc3cn(Cc4ccccc4F)nc3C1=O)C(=O)N2C [Example 117, (3S)-3-(2-(2-fluorobenzyl)-7-oxo-2,4,5,7-tetrahydro-6H-pyrazolo[3,4-c]pyridin-6-yl)-N,5-dimethyl-4-oxo-2,3,4,5-tetrahydro-1,5-benzoxazepine-8-carboxamide]"
8,97,"CN1C(=O)C(N2CCc3c(nn(Cc4ccccc4F)c3Cl)C2=O)CCc2nn(C)cc21 (stereo not drawn) [Example 119, 6-(3-chloro-2-(2-fluorobenzyl)-7-oxo-2,4,5,7-tetrahydro-6H-pyrazolo[3,4-c]pyridin-6-yl)-2,4-dimethyl-2,6,7,8-tetrahydropyrazolo[4,3-b]azepin-5(4H)-one]"

# Reference: patent US10787462B2, “Heterocyclic compound” (TAKEDA PHARMACEUTICAL COMPANY LIMITED, priority 2015, dated 2020)
